Patent US20240115554A1, “METHODS FOR TREATING OBSTRUCTIVE HYPERTROPHIC CARDIOMYOPATHY” (Cytokinetics, Incorporated, priority 2022, published 2024)
Entries after “also recorded” stand apart in the source; their conditions may differ.

Experiments:
Assay type in all cases: in vivo, human
[1] = test system: patients with symptomatic obstructive HCM (oHCM); assay: Phase 2 trial: NYHA functional class
Text: Secondary results from the clinical study included data from Cohort 3 (n=13). […] Overall, treatment duration for each patient in the study was 10 weeks with an echocardiogram conducted 2 weeks after the last dose. Efficacy endpoints included resting and provoked LVOT gradients, NYHA class, and NT-proBNP.

[2] = test system: patients with symptomatic oHCM; assay: Open-label extension: background therapy reduction/withdrawal (BTR/W)
Protocol: Patients were dosed following the protocol of Example 3a or Example 3b. Patients were classified as receiving SoC therapy (both first line and second line) if treated with at least one beta-blocker (BB), non-dihydropyridine calcium channel blocker (CCB), or disopyramide. […] Successful BTR/W was defined as at least a dose-reduction of one medication to ≤50% of baseline. Serial metrics were collected per protocol but side effects specifically related to SoC therapy were not.

[3] = test system: patients with symptomatic obstructive HCM (oHCM); assay: Phase 2 trial: cardiac biomarkers (NT-proBNP, hs-troponin)
Protocol: Echocardiograms obtained every 2 weeks and 2 weeks after the last dose were analyzed for several key structural and physiologic metrics and N-terminal prohormone of brain natriuretic peptide (NT-proBNP). Secondary results from the clinical study included data from Cohort 3 (n=13). […] Overall, treatment duration for each patient in the study was 10 weeks with an echocardiogram conducted 2 weeks after the last dose. Efficacy endpoints included resting and provoked LVOT gradients, NYHA class, and NT-proBNP.

[4] = test system: patients with symptomatic oHCM; assay: Open-label extension: safety and tolerability; conditions: for Patients with TEAE Leading to Dose Reduction / Patients with TEAE Leading to Drug Interruption / Patients with at Least One Related TEAE / Patients with at Least One Severe TEAE / Patients with at Least One TEAE / Patients with at Least One TESAE: open-label extension, preliminary safety
Protocol: An open-label extension clinical trial of aficamten in patients with symptomatic oHCM was initiated.
An open-label extension clinical trial of aficamten in patients with symptomatic oHCM was initiated. The treatment duration is anticipated to be multiple years.
Safety and tolerability are evaluated by (i) patient incidence of adverse events, (ii) patient incidence of serious adverse events, (iii) patient incidence of LVEF <50%.

[5] = test system: patients with symptomatic oHCM; assay: Open-label extension: Kansas City Cardiomyopathy Questionnaire (KCCQ)
Protocol: Change in KCCQ scores from baseline, including OSS=overall summary score, CSS=clinical summary score, TSS=total symptom score, PLS=physical limitation score, SLS=social limitation score, QoL=quality of life, were determined. Patients were categorized with worsened (≤−5 points), unchanged (−5 to <5 points), small improvement (5 to <10 points), moderate to large improvement (10 to <20 points), and large to very large improvement (≥20 points) relative to baseline.

[6] = test system: patients with symptomatic oHCM; assay: Open-label extension: NYHA functional class
Protocol: NYHA Functional Classification is recorded. When available, patients will complete patient-reported outcome (PRO) questionnaires: Kansas City Cardiomyopathy Questionnaire (KCCQ), Seattle Angina Questionnaire-7 (SAQ-7), EuroQol 5-Dimension 5-Level Instrument (EQ-5D-5L), Patient's Global Impression of Change (PGI-C) Scale, Clinical Global Impressions (CGI) Scale, SF-36 Physical Functioning Subscale (SF-36 PFS) as specified in Table 23.

[7] = pooled aficamten Cohorts 1 and 2
[8] = by week 48, Examples 3a and 3b interim

`CCc1nc(-c2ccc3c(c2)CC[C@H]3NC(=O)c2cnn(C)c2)no1` [aficamten, (R)—N-(5-(5-ethyl-1,2,4-oxadiazol-3-yl)-2,3-dihydro-1H-inden-1-yl)-1-methyl-1H-pyrazole-4-carboxamide] was tested. Which “patients with improvement in NYHA class by one or more classes” value ([1]; Cohort 2) did it give?
Its value is 64%.

What about the “NYHA improvement in baseline class III patients” value ([1]; Cohort 3) of the same compound?
Its value is “all baseline NYHA class III patients improved by ≥1 class”.

What about the “patients with ≥1 NYHA class improvement” value ([1]; Cohort 3 (Eleven patients)) of the same compound?
Its value is 85%.

What about the “patients converted from class III to class II or I” value ([1]; Cohorts 1 and 2) of the same compound?
The value was 7 patients.

What about the “patients who improved from NYHA class III to I” value [1, 7] of the same compound?
Its value is “one”.

And the “patients who improved from NYHA class III to II” value [1, 7]?
The value was 6 patients.

And the “patients with change in NYHA class of one or more classes” value ([1]; pooled aficamten Cohorts 1 and 2 (15 of 28))?
The value was 53%.

And the “patients achieving any successful BTR/W among those attempted” value ([2]; 17 of 20 patients with attempted BTR/W)?
Its value is 85%.

And the “patients who completely discontinued at least one SoC medication” value ([2]; BTR/W)?
The value was 10 patients.

And the “patients who withdrew from all SoC (aficamten monotherapy)” value ([2]; BTR/W)?
Its value is 5 patients.

And the “NT-pro B-type Natriuretic Peptide” value ([2]; post-BTR/W)?
The value was 532 ± 934 pg/mL.

And the high-sensitivity troponin I ([2]; post-BTR/W)?
The high-sensitivity troponin I was 5.1 ± 1.6 ng/L.

And the “mean HR after BTR/W” value ([2]; post-BTR/W (N=14))?
Its value is 74±10 bpm.

What about the “mean Valsalva LVOT-G after BTR/W” value ([2]; post-BTR/W (N=14)) of the same compound?
Its value is 42±26 mmHg.

What about the “increase in Valsalva LVOT-G after BTR/W” value ([2]; pre- vs post-BTR/W (N=14)) of the same compound?
Its value is 15 mmHg.

What about the “increase in resting HR after BTR/W” value ([2]; pre- vs post-BTR/W (N=14)) of the same compound?
The value was 12 bpm.

What about the NT-pro B-type Natriuretic Peptide ([2]; pre-BTR/W) of the same compound?
Its NT-pro B-type Natriuretic Peptide is 321 ± 424 pg/mL.

What about the high-sensitivity troponin I ([2]; pre-BTR/W) of the same compound?
Its high-sensitivity troponin I is 4.8 ± 1.8 ng/L.

And the “patients with unsuccessful attempted BTR/W” value ([2]; reinstitution of BB)?
Its value is 3 patients.

What about the “patients with at least some reduction in NT-proBNP levels” value ([3]; 25 out of the 27 patients on aficamten) of the same compound?
The value was 93%.

What about the “proportional reduction in NT-proBNP levels compared to placebo” value ([3]; week 10) of the same compound?
Its value is 62%.

What about the “safety events deemed related to aficamten therapy by investigators” value ([4]; BTR/W analysis) of the same compound?
Its value is “no safety events deemed related to aficamten therapy”.

What about the “LVEF during recurrent alcohol induced atrial fibrillation” value ([4]; one patient on 15 mg) of the same compound?
Its value is 47%.

What about the “events of LVEF <50% attributed to aficamten” value ([4]; open label extension) of the same compound?
Its value is “no events of LVEF <50% attributed to aficamten; also recorded: no patients experienced aficamten related reduction in LVEF <50%; also recorded: no instances of systolic dysfunction (LVEF <50%) attributed to aficamten”.

And the tolerability ([4]; open label extension, Example 3a)?
The tolerability was “well tolerated”.

And the “Patients with TEAE Leading to Dose Reduction” value ([4]; N = 38)?
Its value is “(5%)”.

And the “Patients with TEAE Leading to Drug Interruption” value ([4]; N = 38)?
The value was “(3%)”.

What about the “Patients with at Least One Related TEAE” value ([4]; N = 38) of the same compound?
The value was “(21%)”.

And the “Patients with at Least One Severe TEAE” value ([4]; N = 38)?
Its value is “(3%)”.

And the “Patients with at Least One TEAE” value ([4]; N = 38)?
The value was “(74%)”.

And the “Patients with at Least One TESAE” value ([4]; N = 38)?
Its value is “(5%)”.

And the “Patients with TEAE Leading to Dose Reduction” value ([4]; N = 38, number of patients)?
The value was 2.

And the “Patients with TEAE Leading to Drug Interruption” value ([4]; N = 38, number of patients)?
Its value is 1.

What about the “Patients with at Least One Related TEAE” value ([4]; N = 38, number of patients) of the same compound?
Its value is 8.

And the “Patients with at Least One Severe TEAE” value ([4]; N = 38, number of patients)?
The value was 1.

And the “Patients with at Least One TEAE” value ([4]; N = 38, number of patients)?
The value was 28.

What about the “Patients with at Least One TESAE” value ([4]; N = 38, number of patients) of the same compound?
Its value is 2.

What about the “participants with clinically-important improvement (5 points on the KCCQ Overall Summary Score)” value ([5]; Week 12) of the same compound?
Its value is 72.7%.

And the “participants with very large clinical improvements in KCCQ” value ([5]; Week 12)?
Its value is 36.4%.

What about the “participants with clinically-important improvement (5 points on the KCCQ Overall Summary Score)” value ([5]; Week 24) of the same compound?
Its value is 72.0%.

And the “participants with very large clinical improvements in KCCQ” value ([5]; Week 24)?
Its value is 40.0%.

What about the “improvement in KCCQ domain scores” value ([5]; up to 6 months) of the same compound?
The value was “marked and sustained improvement in all KCCQ domain scores”.

What about the “patients with worsening in NYHA class from baseline” value ([6]; Example 3a, preliminary) of the same compound?
The value was “No patients”.

What about the “patients with NYHA class improvement of one or more classes” value ([6]; Example 3a, up to 6 months) of the same compound?
The value was “about 80%”.

And the “patients with NYHA FC worsening” value [6, 8]?
Its value is “none”.

What about the “patients with ≥1 NYHA FC improvement” value [6, 8] of the same compound?
Its value is 88%.

And the “patients in NYHA class II” value ([6]; week 12 (baseline 47%), Example 3a)?
Its value is 52%.

What about the “patients in NYHA class III” value ([6]; week 12 (baseline 53%), Example 3a) of the same compound?
Its value is 7%.

What about the “patients in NYHA class I” value ([6]; week 12, Example 3a) of the same compound?
Its value is 41%.

And the “patients in NYHA class I” value ([6]; week 24, Example 3a)?
Its value is 56%.

And the “patients in NYHA class II” value ([6]; week 24, Example 3a)?
Its value is 39%.

And the “patients in NYHA class III” value ([6]; week 24, Example 3a)?
Its value is 6%.
